Results as given in patent US11834434B2, “Substituted 2-heteroaryloxypyridines and salts thereof and their use as herbicidal agents” (Bayer Aktiengesellschaft, priority 2018, dated 2023).

Tests used:
Format in all cases: in vivo
Stellaria media (STEME) [1] = assay: Post-emergence herbicidal action against Stellaria media; details: 1280 g/ha; rated visually after about 3 weeks vs untreated controls; 100% = plants have died, 0% = like control plants
Protocol: (§1) Seeds of mono- and dicotyledonous weed plants were placed in plastic pots in sandy loam soil (doubly sown with in each case one species of mono- or dicotyledonous weed plants per pot), covered with soil and cultivated in a greenhouse under controlled growth conditions. 2 to 3 weeks after sowing, the test plants were treated at the one-leaf stage. The compounds of the invention, formulated in the form of wettable powders (WP) or as emulsion concentrates (EC), were applied onto the green parts of the plants as aqueous suspension or emulsion with addition of 0.5% additive at a water application rate of 600 liters per hectare (converted). After the test plants had been kept in the greenhouse under optimum growth conditions for about 3 weeks, the activity of the preparations was rated visually in comparison to untreated controls. For example, 100% activity=the plants have died, 0% activity=like control plants. Tables B1 to B8 below show the effects of selected compounds of the general formula (I) according to Table 1 on various harmful plants and an application rate corresponding to 1280 g/ha, which were obtained by the experimental procedure mentioned above.

Stellaria media (STEME) [2] = assay: Pre-emergence herbicidal action against Stellaria media; details: 1280 g/ha; scored visually after about 3 weeks vs untreated controls; 100% = plants have died, 0% = like control plants
Source text: (§2) Seeds of mono- and dicotyledonous weed plants were placed in plastic pots in sandy loam soil (doubly sown with in each case one species of mono- or dicotyledonous weed plants per pot) and covered with soil. The compounds of the invention, formulated in the form of wettable powders (WP) or as emulsion concentrates (EC), were then applied onto the surface of the covering soil as aqueous suspension or emulsion with addition of 0.5% additive at a water application rate of 600 liters per hectare (converted). After the treatment, the pots were placed in a greenhouse and kept under good growth conditions for the test plants. After about 3 weeks, the effect of the preparations was scored visually in comparison with untreated controls as percentages. For example, 100% activity=the plants have died, 0% activity=like control plants. Tables C1 to C8 below show the effects of selected compounds of the general formula (I) according to Table 1 on various harmful plants and an application rate corresponding to 1280 g/ha, which were obtained by the experimental procedure mentioned above.

Setaria viridis (SETVI) = assay: Pre-emergence herbicidal action against Setaria viridis; details: 1280 g/ha; scored visually after about 3 weeks vs untreated controls; 100% = plants have died, 0% = like control plants
Source text: as §2

[3] = tested on: Amaranthus retroflexus (AMARE); assay: Post-emergence herbicidal action against Amaranthus retroflexus; details: 1280 g/ha; rated visually after about 3 weeks vs untreated controls; 100% = plants have died, 0% = like control plants
Protocol: as §1

Poa annua (POAAN) [4] = assay: Pre-emergence herbicidal action against Poa annua; details: 1280 g/ha; scored visually after about 3 weeks vs untreated controls; 100% = plants have died, 0% = like control plants
Source text: as §2

[5] = tested on: Echinochloa crus-galli (ECHCG); assay: Post-emergence herbicidal action against Echinochloa crus-galli; details: 1280 g/ha; rated visually after about 3 weeks vs untreated controls; 100% = plants have died, 0% = like control plants
Protocol: as §1

[6] = tested on: Amaranthus retroflexus (AMARE); assay: Pre-emergence herbicidal action against Amaranthus retroflexus; details: 1280 g/ha; scored visually after about 3 weeks vs untreated controls; 100% = plants have died, 0% = like control plants
Source text: as §2

[7] = tested on: Matricaria inodora (MATIN); assay: Pre-emergence herbicidal action against Matricaria inodora; details: 1280 g/ha; scored visually after about 3 weeks vs untreated controls; 100% = plants have died, 0% = like control plants
Source text: as §2

[8] = tested on: Abutilon theophrasti (ABUTH); assay: Pre-emergence herbicidal action against Abutilon theophrasti; details: 1280 g/ha; scored visually after about 3 weeks vs untreated controls; 100% = plants have died, 0% = like control plants
Source text: as §2

Poa annua (POAAN) [9] = assay: Post-emergence herbicidal action against Poa annua; details: 1280 g/ha; rated visually after about 3 weeks vs untreated controls; 100% = plants have died, 0% = like control plants
Protocol: as §1

[10] = tested on: Echinochloa crus-galli (ECHCG); assay: Pre-emergence herbicidal action against Echinochloa crus-galli; details: 1280 g/ha; scored visually after about 3 weeks vs untreated controls; 100% = plants have died, 0% = like control plants
Source text: as §2

Lolium rigidum (LOLRI) = assay: Pre-emergence herbicidal action against Lolium rigidum; details: 1280 g/ha; scored visually after about 3 weeks vs untreated controls; 100% = plants have died, 0% = like control plants
Source text: as §2

[11] = tested on: Abutilon theophrasti (ABUTH); assay: Post-emergence herbicidal action against Abutilon theophrasti; details: 1280 g/ha; rated visually after about 3 weeks vs untreated controls; 100% = plants have died, 0% = like control plants
Protocol: as §1

| SMILES | Post-emergence action against Stellaria media (STEME) (Stellaria media (STEME) [1]) [%] | Pre-emergence action against Stellaria media (STEME) (Stellaria media (STEME) [2]) [%] | Pre-emergence action against Setaria viridis (SETVI) (Setaria viridis (SETVI)) [%] | Post-emergence action against Amaranthus retroflexus (AMARE) [3] [%] | Pre-emergence action against Poa annua (POAAN) (Poa annua (POAAN) [4]) [%] | Post-emergence action against Echinochloa crus-galli (ECHCG) [5] [%] | Pre-emergence action against Amaranthus retroflexus (AMARE) [6] [%] | Pre-emergence action against Matricaria inodora (MATIN) [7] [%] | Pre-emergence action against Abutilon theophrasti (ABUTH) [8] [%] | Post-emergence action against Poa annua (POAAN) (Poa annua (POAAN) [9]) [%] | Pre-emergence action against Echinochloa crus-galli (ECHCG) [10] [%] | Pre-emergence action against Lolium rigidum (LOLRI) (Lolium rigidum (LOLRI)) [%] | Post-emergence action against Abutilon theophrasti (ABUTH) [11] [%] |
| --- | --- | --- | --- | --- | --- | --- | --- | --- | --- | --- | --- | --- | --- |
| Fc1cnc(Oc2ncccc2Sc2cccc(Cl)c2)nc1 [Example I-158] | 100 | 100 | 90 | 100 | 90 | 100 | 100 | – | – | – | – | – | – |
| Cc1ccnc(Oc2ncccn2)c1Sc1cccc(Cl)c1 [Example I-212] | 100 | 100 | 100 | – | 100 | 100 | 100 | 100 | 100 | 100 | 100 | 100 | – |
| Cc1ccc(Cc2ccccc2)c(Oc2ncc(Cl)cn2)n1 [Example I-397] | 100 | 100 | 100 | – | 100 | – | 90 | 100 | 100 | 100 | 100 | 100 | 90 |
| Cc1ccc(Cc2ccc(F)cc2F)c(Oc2ncc(F)cn2)n1 [Example I-433] | 100 | 100 | 100 | 90 | 100 | – | 100 | 100 | 100 | 100 | 100 | 90 | 90 |
| Cc1cc(C)c(Cc2ccc(Cl)cc2)c(Oc2ncc(F)cn2)n1 [Example I-482] | 100 | 100 | 100 | 100 | 100 | – | 100 | 100 | 100 | 100 | 100 | 100 | 90 |
| Cc1cc(C)c(Cc2ccc(C)c(F)c2)c(Oc2ncc(F)cn2)n1 [Example I-483] | 100 | 100 | 100 | 90 | 100 | – | 100 | 100 | 100 | 90 | 90 | 90 | 90 |
